Data reported in article PMC7619385 (ACS infectious diseases, 2025).
Read-outs that look alike come from different tables or passages of the source.

Target: T1, LmxCLK1 (Leishmania mexicana, UniProt E9AMP2)
T1 sequence (E9AMP2 1-422): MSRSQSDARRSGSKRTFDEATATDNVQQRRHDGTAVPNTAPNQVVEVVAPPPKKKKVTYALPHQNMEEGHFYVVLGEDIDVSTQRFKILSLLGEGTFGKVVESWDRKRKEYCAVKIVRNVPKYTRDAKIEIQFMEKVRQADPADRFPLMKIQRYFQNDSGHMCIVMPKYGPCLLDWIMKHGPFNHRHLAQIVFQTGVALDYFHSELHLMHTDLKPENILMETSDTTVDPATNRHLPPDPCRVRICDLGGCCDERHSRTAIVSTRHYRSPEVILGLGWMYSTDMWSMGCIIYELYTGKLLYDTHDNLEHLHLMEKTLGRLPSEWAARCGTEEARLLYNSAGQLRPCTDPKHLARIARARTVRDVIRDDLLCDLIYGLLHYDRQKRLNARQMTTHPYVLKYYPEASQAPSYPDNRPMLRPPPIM
Assay: biochemical
Assay type: binding

[1] = DSF, 10 µM compound, 2 µM LmxCLK1, Run 1, read-out: ΔTm Run 1
[2] = DSF, 10 µM compound, 2 µM LmxCLK1, Run 2, read-out: ΔTm Run 2
[3] = DSF, 10 µM compound, 2 µM LmxCLK1, mean of two runs, read-out: ΔTm Average
[4] = DSF, 10 µM compound, 2 µM LmxCLK1, Run 1
[5] = DSF, 10 µM compound, 2 µM LmxCLK1, Run 2
[6] = DSF, 10 µM compound, 2 µM LmxCLK1, mean of two runs

Row | Compound | ΔTm at 10 µM [1] [°C] | ΔTm at 10 µM [2] [°C] | ΔTm at 10 µM [3] [°C] | ΔTm Run 1 [4] [°C] | ΔTm Run 2 [5] [°C] | ΔTm Average [6] [°C] | also measured
1 | Cc1ccc(Nc2nccc(N(C)c3ccc4c(C)n(C)nc4c3)n2)cc1S(N)(=O)=O [Pazopanib] | 0.1 | -0.4 | -0.2 | – | – | – | –
2 | CNc1nc(-c2ccc3c(N)n[nH]c3c2)cc(N2C[C@@H](C(=O)NC3CCCCC3)CC[C@H]2C)n1 [GSK2334470] | 0.3 | -0.5 | -0.1 | – | – | – | –
3 | CC1=C(C(=O)Nc2cc3cn[nH]c3cc2F)C(c2ccc(C(F)(F)F)cc2)CC(=O)N1 (stereo not drawn) [GSK429286A] | 0.1 | 0.2 | 0.1 | – | – | – | –
4 | COc1cc2nccc(Oc3ccc(NC(=O)Nc4cc(C)on4)c(Cl)c3)c2cc1OC [Tivozanib (AV-951)] | 0.2 | 0 | 0.1 | – | – | – | –
5 | O=C(c1ccc(/C=C/c2n[nH]c3ccccc23)cc1)N1CCNCC1 [KW-2449] | 0.4 | 0.4 | 0.4 | – | – | – | –
6 | N#CC[C@H](C1CCCC1)n1cc(-c2ncnc3[nH]ccc23)cn1 [Ruxolitinib (INCB018424)] | 0.9 | 1.1 | 1 | – | – | – | –
7 | Cl.Cl.Clc1ccc(Nc2nnc(Cc3ccncc3)c3ccccc23)cc1 [Vatalanib (PTK787) 2HCl] | – | – | – | -0.2 | 0.0 | -0.1 | –
8 | Cc1ncc(-c2ccnc(Nc3ccc(S(C)(=O)=O)cc3)n2)n1C(C)C [AZD5438] | 1.2 | 0.8 | 1 | – | – | – | –
9 | COc1ccc(-c2ccc3c(N4CCOCC4)nc(N4C[C@@H](C)O[C@@H](C)C4)nc3n2)cc1CO [KU-0063794] | 0.1 | 0.1 | 0.1 | – | – | – | –
10 | CCOc1cc(N2CCC(O)CC2)ccc1Nc1ncc2c(n1)N(C)c1ccccc1C(=O)N2C [XMD8-92] | – | – | – | – | – | – | ΔTm Average: -0.3; ΔTm Run 1: -0.2; ΔTm Run 2: -0.5
11 | CNC(=O)Nc1ccc(-c2nc(N3CC4CCC(C3)O4)c3cnn(C4CCC5(CC4)OCCO5)c3n2)cc1 [WYE-125132 (WYE-132)] | – | – | – | 0.2 | -0.1 | 0.0 | –
12 | N#CCNC(=O)c1ccc(-c2ccnc(Nc3ccc(N4CCOCC4)cc3)n2)cc1 [CYT387] | 0 | -0.1 | 0 | – | – | – | –
13 | Cc1cnc(Nc2ccc(OCCN3CCCC3)cc2)nc1Nc1cccc(S(=O)(=O)NC(C)(C)C)c1 [TG101348 (SAR302503)] | – | – | – | 0.2 | 0.3 | 0.3 | –
14 | CC[C@@H]1C(=O)N(C)c2cnc(Nc3ccc(C(=O)N[C@H]4CC[C@H](N5CCN(CC6CC6)CC5)CC4)cc3OC)nc2N1C(C)C [Volasertib (BI 6727)] | – | – | – | 0.3 | 0.0 | 0.2 | –
15 | Oc1ccc(Nc2nc(-c3ccc(Cl)cc3)cs2)cc1 [SKI II] | – | – | – | 0.1 | 0.1 | 0.1 | –
16 | NC1(Cc2ccc(Cl)cc2)CCN(c2ncnc3[nH]ccc23)CC1 [CCT128930] | – | – | – | 0.8 | 0.6 | 0.7 | –
17 | COc1cc2nccc(Oc3ccc(NC(=O)C4(C(=O)Nc5ccc(F)cc5)CC4)cc3)c2cc1OC [Cabozantinib (XL184)] | – | – | – | 0.3 | -0.2 | 0.0 | –
18 | Cc1cc(C(=O)NOCCO)c(Nc2ccc(I)cc2F)n(C)c1=O [AZD8330] | 0.5 | 0.2 | 0.3 | – | – | – | –
19 | S=C(NCc1ccc2c(c1)OCO2)N1CCN(c2ncnc3c2oc2ccccc23)CC1 [Amuvatinib (MP-470)] | – | – | – | 0.1 | 0.0 | 0.1 | –
20 | COC(=O)[C@]12CCC(C)(C)C[C@H]1[C@H]1C(=O)C=C3[C@@]4(C)C=C(C#N)C(=O)C(C)(C)[C@@H]4CC[C@@]3(C)[C@]1(C)CC2 [Bardoxolone Methyl] | 0.6 | 0.5 | 0.5 | – | – | – | –
21 | CN(c1ncccc1CNc1nc(Nc2ccc3c(c2)CC(=O)N3)ncc1C(F)(F)F)S(C)(=O)=O [PF-00562271] | – | – | – | – | – | – | ΔTm Average: -0.1; ΔTm Run 1: 0 °C; ΔTm Run 2: -0.3
22 | O=C(Nc1cc(C(F)(F)F)cc(C(F)(F)F)c1)c1cc(Cl)ccc1O [IMD 0354] | 0.2 | -0.1 | 0 | – | – | – | –
23 | CNc1nc(Nc2cn(C(C)(C)C#N)nc2C)ncc1C(F)(F)F [GNE-0877] | -0.1 | -0.2 | -0.1 | – | – | – | –
24 | Cc1ccc([N+](=O)[O-])cc1S(=O)(=O)N(C)/N=C/c1cnc2ccc(Br)cn12 [PIK-75] | – | – | – | – | – | – | ΔTm Average: 0.3 °C; ΔTm Run 1: 0.5 °C; ΔTm Run 2: 0.1 °C
